The target of one series is HER2 (Homo sapiens (Human), UniProt P04626). Briefly: BT474 cellular assay (HER2 inhibition), phospho-HER2 ELISA. The class given is cell-based. As to conditions: inhibition of phosphor HER2, BT474 cells, 2 hours compound incubation. In a few lines:
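BT474 cells seeded and grown 24 h, then exposed to compound for 2 h at 37 °C and lysed. Lysates assayed for phospho-HER2 by sandwich ELISA with TMB detection, absorbance read at 450 and 570 nm; IC50 values derived.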
In general terms: In an ELISA, binding on a coated surface is turned into a signal by an enzyme label.

A further series deals with wt-EGFR (Homo sapiens (Human), UniProt P00533). Briefly: NCI H838 cellular assay (wt-EGFR inhibition), phospho-EGFR ELISA. The class given is cell-based. The method, then:
Assay b) NCI H838 Cellular Assay (Wt-EGFR Inhibition) Inhibition of phosphor wt-EGFR was determined by enzyme-linked immunosorbent assay (ELISA) in NCI H838 cells (ATCC, catalog number CRL-5844). Human Phospho-EGFR DuoSet IC ELISA kit was purchased from R&D systems (catalog number DYC1095). Day 1: When the cells reach 70-90% confluence, cells were trypsinized and re-suspended. 5000 cells per well were seeded to a 384-well plate. The plate was incubated at 37° C. with 5% CO2 for 24 hours. Day 2: Cell culture medium was replaced with 40 μL FBS-Free RPMI1640. After 2 hours of starvation, the 384-well plate was dosed with 40 nL of compounds by Echo from source plate and the 384-well plate was incubated at 37° C. with 5% CO2 for 2 hours. After 2 hours of incubation with compounds, EGF (final concentration at 100 ng/ml) was added to the plate which was incubated at 37° C. with 5% CO2 for 5-10 minutes. Medium was discarded from the plate and 30 μl/well lysis buffer was added to the plate which was incubated at 4° C. for 10 minutes. The cell lysates can be stored at −80° C. in cell plates but must be thawed at room temperature for at least 30 minutes prior to use and continuing the assay. ELISA plate was coated by diluting capture antibody to 4 μg/ml with PBS, and 25 μl/well was dispensed to 384 well UltraCruz® ELISA Plate, which was incubated at 4° C. overnight. Day 3: After the plates were washed three times with 100 μl/well of wash buffer, the plates were blocked by adding 75 μl of Block Buffer to each well and incubated at room temperature for 3 hours. After the plates were washed three times with 100 μl/well of wash buffer, 20 μl cell lysate was transferred to the blocked ELISA plate which was incubated for 2 hours at room temperature. After the plates were washed three times with 100 μl/well of wash buffer, 25 μl/well detection antibody (dilute 1 in 900 in assay buffer) was added the plate which was incubated for 2 hours, protected from light. After washed three times, 25 μl/well TMB substrate was added to the ELISA plate which was incubated for about 10-15 min, protected from light before addition of 25 μl/well stop solution. Absorbance was read at 450 nm and 570 nm within 30 minutes.

The next series deals with P-glycoprotein (Pgp) (Homo sapiens (Human), UniProt P08183). The series can be described thus: MDCK-MDR1 Pgp assessment. The class given is in vitro ADME. As to conditions: for Pgp substrate status: conclusion from Table 3; for efflux ratio at 2 h, 1 μM: dog, MDCK-MDR1 cells, 37° C. for 2 hours, read-out: PgpER. As to the method: Assay c): MDCK-MDR1 Pgp Assessment
Efflux transport mediated by P-glycoprotein (Pgp) was assessed by MDCK-MDR1 cells. The final concentrations of test compounds and control compound were at 1 μM. The multi-well insert plate was incubated at 37° C. for 2 hours.

Another series concerns the target BCRP (Homo sapiens (Human), UniProt Q9UNQ0). The series can be described thus: Caco-2 BCRP assessment. The class given is in vitro ADME. Conditions: for BCRP ER: Caco-2 cells, 1 μM, efflux ratio -/+ novobiocin 30 μM, >2 = BCRP substrate; for BCRP substrate status: conclusion from Table 3. As to the method: Assay d): Caco-2 BCRP Assessment
Caco-2 cells were used to study efflux transport mediated by BCRP. Rate of drug transport by BCRP was determined in the presence and absence of novobiocin, a strong inhibitor of BCRP, which was added to both apical and basolateral compartment sat a final concentration of 30 μM. The final concentrations of test compounds and control compound were at 1 μM. The multi-well insert plate was incubated at 37° C. for 2 hours. Efflux ratio (−inhibitor/+inhibitor)>2 was considered to be a BCRP substrate.

Series [1] can be described thus: Mouse SOA study for brain penetration. The format is in vivo. Conditions: for Kp: male, balb/c, mouse, brain, po, 10 mg/kg, read-out: Mouse Kpu, u; for brain penetration in vivo: mouse SOA study, conclusion from Table 3. The method, then:
Assay e) Mouse SOA Study for Brain Penetration
Six non-fasted male balb/c mice (6-8 weeks, 20-25 g) were orally administered at 10 mg/kg, using a suspension formulation of 1% methylcellulose (MC) in deionized water. Brain and blood samples were collected at 0.25, 0.5, 1, 2, 4, 7 hours after dose. Plasma was obtained by centrifuging the blood samples for 5 min at 4000 g and 4° C. Brain tissue was homogenized following addition of four times the volume of phosphate-buffered saline (pH 7.4). Quantification of the compound in plasma and brain was undertaken by LC-MS/MS. Area under the curve (AUC) was determined from 0 to 7 hours in the brain tissue and plasma.
Total brain to plasma concentration ratio Kp was determined using the equation: Brain Kp=AUC0-7 hr brain/AUC0-7 hr plasma
Unbound brain to plasma ratio was determined using the equation: Brain Kp,uu=Kp*fu,brain/fu,plasma
Unbound fraction (fu, plasma) and unbound fraction (fu, brain) were obtained from in vitro equilibrium dialysis by using plasma and brain homogenate, respectively.

The target in the next series is hERG channel (Homo sapiens (Human), UniProt Q12809). Briefly: hERG inhibition, manual patch clamp in HEK 293 cells. Conditions: for IC50: HEK 293 cell line stably expressing hERG channel, manual patch clamp; for hERG liability: conclusion from Table 3. The format is cell-based. The method, then:
Assay f): hERG Inhibition Inhibition of hERG channel was conducted in HEK 293 cell line stably expressing hERG channel by manual patch clamp.
A general note: hERG is a cardiac potassium channel; its block is linked to QT prolongation.

The conditions of series [2]: literature values; cited from earlier work.
In the next series the test system is Pgp. As to conditions: literature statement; cited from earlier work.

Molecules are shown by their SMILES. Read-outs that look alike come from different tables or passages of the source.

Chain of P-glycoprotein (Pgp) (P08183 whole entry): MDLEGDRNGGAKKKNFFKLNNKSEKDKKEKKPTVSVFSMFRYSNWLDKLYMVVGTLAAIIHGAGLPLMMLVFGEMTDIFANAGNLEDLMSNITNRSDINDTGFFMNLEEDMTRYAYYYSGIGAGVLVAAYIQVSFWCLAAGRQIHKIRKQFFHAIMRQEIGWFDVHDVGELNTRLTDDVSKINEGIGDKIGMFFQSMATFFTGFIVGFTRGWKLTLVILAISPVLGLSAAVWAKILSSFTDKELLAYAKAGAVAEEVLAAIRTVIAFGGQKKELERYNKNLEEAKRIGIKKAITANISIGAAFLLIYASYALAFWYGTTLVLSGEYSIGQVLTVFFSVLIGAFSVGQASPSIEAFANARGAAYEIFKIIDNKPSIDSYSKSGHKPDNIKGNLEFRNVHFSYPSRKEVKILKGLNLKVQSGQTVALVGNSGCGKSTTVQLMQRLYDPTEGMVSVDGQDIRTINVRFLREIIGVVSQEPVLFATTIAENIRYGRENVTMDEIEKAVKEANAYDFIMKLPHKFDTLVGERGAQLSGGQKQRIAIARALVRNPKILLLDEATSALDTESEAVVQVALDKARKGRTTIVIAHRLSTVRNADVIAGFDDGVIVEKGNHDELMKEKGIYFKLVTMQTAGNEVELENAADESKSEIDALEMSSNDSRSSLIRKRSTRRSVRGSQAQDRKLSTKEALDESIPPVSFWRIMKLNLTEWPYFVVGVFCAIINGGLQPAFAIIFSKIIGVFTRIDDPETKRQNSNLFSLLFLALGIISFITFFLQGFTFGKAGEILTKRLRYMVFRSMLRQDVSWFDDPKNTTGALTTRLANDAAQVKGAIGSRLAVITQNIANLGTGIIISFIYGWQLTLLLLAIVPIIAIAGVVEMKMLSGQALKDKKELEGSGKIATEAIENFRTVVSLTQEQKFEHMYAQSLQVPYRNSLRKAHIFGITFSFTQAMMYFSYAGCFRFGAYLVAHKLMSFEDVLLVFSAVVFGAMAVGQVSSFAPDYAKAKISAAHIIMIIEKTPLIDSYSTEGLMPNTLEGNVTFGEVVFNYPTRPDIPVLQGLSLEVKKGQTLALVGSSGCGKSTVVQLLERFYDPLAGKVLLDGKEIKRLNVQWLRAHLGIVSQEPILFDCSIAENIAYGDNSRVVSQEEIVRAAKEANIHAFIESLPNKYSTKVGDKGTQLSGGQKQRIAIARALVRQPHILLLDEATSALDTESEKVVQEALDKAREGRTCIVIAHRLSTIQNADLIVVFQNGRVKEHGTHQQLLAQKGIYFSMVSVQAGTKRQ
Chain of hERG channel (Q12809 whole entry): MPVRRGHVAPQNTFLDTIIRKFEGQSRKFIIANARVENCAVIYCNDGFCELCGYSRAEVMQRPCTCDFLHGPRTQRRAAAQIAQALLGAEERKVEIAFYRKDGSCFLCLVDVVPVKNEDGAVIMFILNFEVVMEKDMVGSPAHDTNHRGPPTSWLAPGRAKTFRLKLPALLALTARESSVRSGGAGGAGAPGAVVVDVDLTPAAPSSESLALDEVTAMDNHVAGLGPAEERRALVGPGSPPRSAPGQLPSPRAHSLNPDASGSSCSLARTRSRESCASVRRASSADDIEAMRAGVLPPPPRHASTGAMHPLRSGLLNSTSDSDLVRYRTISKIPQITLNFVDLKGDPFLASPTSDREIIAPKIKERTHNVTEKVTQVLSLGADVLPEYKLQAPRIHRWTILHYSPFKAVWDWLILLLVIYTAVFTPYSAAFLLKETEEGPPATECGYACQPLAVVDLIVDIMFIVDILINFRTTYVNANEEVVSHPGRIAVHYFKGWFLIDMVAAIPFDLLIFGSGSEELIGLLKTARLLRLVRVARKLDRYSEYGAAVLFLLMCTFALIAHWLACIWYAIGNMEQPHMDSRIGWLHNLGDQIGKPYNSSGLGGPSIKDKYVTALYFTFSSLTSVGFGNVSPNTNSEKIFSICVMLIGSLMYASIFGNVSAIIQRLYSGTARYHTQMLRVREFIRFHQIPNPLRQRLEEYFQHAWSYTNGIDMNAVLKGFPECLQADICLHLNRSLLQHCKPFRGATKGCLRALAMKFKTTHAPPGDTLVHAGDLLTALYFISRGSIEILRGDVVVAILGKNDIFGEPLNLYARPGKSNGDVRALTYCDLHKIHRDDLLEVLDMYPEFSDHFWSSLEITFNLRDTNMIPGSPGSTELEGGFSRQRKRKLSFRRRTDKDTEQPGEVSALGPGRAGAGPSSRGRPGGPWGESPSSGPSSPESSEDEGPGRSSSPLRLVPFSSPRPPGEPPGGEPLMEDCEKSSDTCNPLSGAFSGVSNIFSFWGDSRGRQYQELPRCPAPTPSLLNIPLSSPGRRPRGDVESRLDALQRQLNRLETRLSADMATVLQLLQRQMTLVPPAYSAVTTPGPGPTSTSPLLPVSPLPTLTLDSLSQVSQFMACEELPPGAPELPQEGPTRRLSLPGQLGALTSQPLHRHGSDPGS
Chain of BCRP (Q9UNQ0 whole entry): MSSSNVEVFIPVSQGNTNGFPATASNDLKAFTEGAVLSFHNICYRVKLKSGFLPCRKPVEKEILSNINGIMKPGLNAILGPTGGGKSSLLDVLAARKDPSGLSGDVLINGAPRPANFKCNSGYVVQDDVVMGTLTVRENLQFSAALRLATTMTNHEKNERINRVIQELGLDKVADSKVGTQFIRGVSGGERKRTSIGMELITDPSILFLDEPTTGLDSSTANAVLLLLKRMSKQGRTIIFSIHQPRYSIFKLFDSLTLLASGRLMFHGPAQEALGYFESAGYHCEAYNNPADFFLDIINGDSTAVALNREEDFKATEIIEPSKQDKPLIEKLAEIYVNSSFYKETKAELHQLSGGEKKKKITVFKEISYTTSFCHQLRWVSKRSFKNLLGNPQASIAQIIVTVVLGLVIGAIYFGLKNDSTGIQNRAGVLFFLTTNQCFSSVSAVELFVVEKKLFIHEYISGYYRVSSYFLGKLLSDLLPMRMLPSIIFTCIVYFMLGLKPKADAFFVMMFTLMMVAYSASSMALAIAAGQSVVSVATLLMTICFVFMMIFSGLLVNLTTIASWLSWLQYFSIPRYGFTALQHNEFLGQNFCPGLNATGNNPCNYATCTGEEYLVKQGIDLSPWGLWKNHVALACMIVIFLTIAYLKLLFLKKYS
Chain of HER2 (P04626 23-1255): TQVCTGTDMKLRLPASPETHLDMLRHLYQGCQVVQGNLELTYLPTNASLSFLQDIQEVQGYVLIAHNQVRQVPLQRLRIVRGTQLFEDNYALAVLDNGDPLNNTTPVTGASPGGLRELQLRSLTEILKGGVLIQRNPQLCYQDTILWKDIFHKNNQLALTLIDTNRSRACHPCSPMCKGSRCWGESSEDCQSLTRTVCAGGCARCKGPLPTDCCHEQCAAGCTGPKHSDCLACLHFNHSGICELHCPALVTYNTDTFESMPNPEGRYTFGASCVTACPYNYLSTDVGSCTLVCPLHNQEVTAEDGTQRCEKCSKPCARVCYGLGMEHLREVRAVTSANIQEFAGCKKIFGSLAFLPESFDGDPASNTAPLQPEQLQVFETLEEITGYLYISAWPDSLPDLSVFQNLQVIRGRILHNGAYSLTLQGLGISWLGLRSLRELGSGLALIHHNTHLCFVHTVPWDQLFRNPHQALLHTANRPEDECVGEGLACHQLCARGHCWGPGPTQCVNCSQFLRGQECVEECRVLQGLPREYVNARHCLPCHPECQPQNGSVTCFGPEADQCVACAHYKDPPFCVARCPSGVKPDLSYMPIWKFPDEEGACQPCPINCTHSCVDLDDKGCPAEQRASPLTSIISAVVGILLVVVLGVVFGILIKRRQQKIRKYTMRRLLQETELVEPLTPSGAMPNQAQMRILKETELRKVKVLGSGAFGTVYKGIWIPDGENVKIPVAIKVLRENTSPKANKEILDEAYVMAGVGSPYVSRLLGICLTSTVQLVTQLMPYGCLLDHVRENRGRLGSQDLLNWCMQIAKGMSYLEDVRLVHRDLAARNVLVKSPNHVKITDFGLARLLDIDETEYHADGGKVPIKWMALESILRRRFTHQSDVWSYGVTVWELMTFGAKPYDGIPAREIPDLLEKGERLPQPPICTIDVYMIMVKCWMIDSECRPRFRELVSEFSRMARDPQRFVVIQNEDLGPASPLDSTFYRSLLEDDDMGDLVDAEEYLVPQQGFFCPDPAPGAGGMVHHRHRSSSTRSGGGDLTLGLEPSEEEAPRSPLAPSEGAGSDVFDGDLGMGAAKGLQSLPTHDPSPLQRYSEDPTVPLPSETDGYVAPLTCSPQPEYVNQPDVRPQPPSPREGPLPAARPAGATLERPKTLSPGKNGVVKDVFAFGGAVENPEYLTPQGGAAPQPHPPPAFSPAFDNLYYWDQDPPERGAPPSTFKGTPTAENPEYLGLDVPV

At HER2, `COc1ccc2ncnc(Nc3ccc(Oc4cc5ncnn5cn4)c(Cl)c3)c2c1O[C@@H]1CCN(C)CC1(F)F` [Example 33, (R)—N-(4-([1,2,4]triazolo[1,5-c]pyrimidin-7-yloxy)-3-chlorophenyl)-5-((3,3-difluoro-1-methylpiperidin-4-yl)oxy)-6-methoxyquinazolin-4-amine] displayed a half-maximal inhibitory concentration (IC50) of 8 nM. Moreover, inhibition against wt-EGFR (inhibition of phosphor wt-EGFR, NCI H838 cells, EGF 100 ng/ml) was half-maximal at 400 nM (IC50). Moreover, on P-glycoprotein (Pgp), the “Pgp substrate status” value is on record as “not Pgp or BCRP substrates” and the efflux ratio at 2 h, 1 μM was 0.6. Moreover, on BCRP, the “BCRP ER” value is 1.3 and the “BCRP substrate status” value was “not Pgp or BCRP substrates”. In series [1], the Kp was found to be 0.24 and the “brain penetration in vivo” value is reported as “brain penetrable”. Moreover, at hERG channel, the IC50 came to 13300 nM and the “hERG liability” value was “do not show hERG liability”.
In the case of `[2H]C([2H])([2H])Oc1ccc2ncnc(Nc3ccc(Oc4cc5ncnn5cn4)c(C)c3)c2c1O[C@@H]1CCN(C)CC1(F)F` [Example 36, (R)—N-(4-([1,2,4]-triazolo[1,5-c]pyrimidin-7-yloxy)-3-methylphenyl)-5-((3,3-difluoro-1-methylpiperidin-4-yl)oxy)-6-(methoxy-d3)quinazolin-4-amine], the midpoint of inhibition on HER2, the IC50, lay at 11 nM. The same molecule came in with an IC50 against wt-EGFR of 440 nM. In addition, on P-glycoprotein (Pgp), the “Pgp substrate status” value is “not Pgp or BCRP substrates” and the efflux ratio at 2 h, 1 μM stood at 0.81. Besides, on BCRP, the “BCRP ER” value turned out to be 1.8 and the “BCRP substrate status” value is listed as “not Pgp or BCRP substrates”. Moreover, in series [1], the Kp is 0.19 and the “brain penetration in vivo” value is on record as “brain penetrable”. At hERG channel, the 50% inhibitory concentration (IC50) was above 10000 nM and the “hERG liability” value was “do not show hERG liability”.
With `Cc1cc(Nc2ncnc3ccc(NC4=NC(C)(C)CO4)cc23)ccc1Oc1ccn2ncnc2c1` [Tucatinib], in series [2], the “brain to blood ratio (Kp)” value is reported as 0.02-0.05. Also, in the series on Pgp, the Pgp substrate status entry is “strong Pgp substrate”.
Turning to `CN(C)C/C=C/C(=O)Nc1cc2c(Nc3ccc(F)c(Cl)c3)ncnc2cc1O[C@H]1CCOC1` [afatinib], in series [2], the “brain to blood ratio (Kp)” value is below 0.08. The Pgp substrate status result with Pgp was “strong Pgp substrates”.
On to `CS(=O)(=O)CCNCc1ccc(-c2ccc3ncnc(Nc4ccc(OCc5cccc(F)c5)c(Cl)c4)c3c2)o1` [lapatinib], for which the “brain to blood ratio (Kp)” value in series [2] is reported as 0.04. Besides, in the series on Pgp, the Pgp substrate status entry is given as “strong Pgp substrates”.
`CCOc1cc2ncc(C#N)c(Nc3ccc(OCc4ccccn4)c(Cl)c3)c2cc1NC(=O)/C=C/CN(C)C` [neratinib]: the “brain to blood ratio (Kp)” value in series [2] is 0.079. Also, the Pgp substrate status result in the series with Pgp is reported as “strong Pgp substrates”.

A word on the IC50: it is the concentration that gives 50% inhibition.
